According to patent US20240382399A1, “ANTISEBOGENIC COMPOSITION, FORMULATION AND USE OF THE COMPOSITION” (CHEMYUNION LTDA., priority 2021, published 2024):

Legend:
[1] = tested on: C. acnes; conditions: concentrations of 6.9 mM (1 mg/mL) and 8.6 mM (1 mg/mL); cited from earlier work
[2] = tested on: 5-alpha reductase type 1; experiment: Expression of 5-alpha reductase type 1 in cultured human keratinocytes (real-time PCR); assay type: cell-based; conditions: Testosterone 1.10^-8 mol/L, 24 hours; compared to the baseline control, P<0.05
Method: The objective of the test was to evaluate the effects of P19/7 on the expression of 5-alpha reductase type 1 in cultured human keratinocytes. The enzyme 5-alpha-reductase […] acts in the conversion of testosterone into dihydrotestosterone (DHT), a steroid responsible for modulating sebaceous secretion.
To carry out the assay, commercially obtained human keratinocytes (Rio de Janeiro Cell Bank—BCRJ) were cultivated in specific culture media and maintained in a humid incubator at 37° C. containing 5% CO2. When they reached confluence (3rd to 5th passage), cells were seeded in a 6-well plate and incubated with 0.0049% (w/v) P19/7+Testosterone (1.10^−8 mol/L) or Testosterone (1.10^−8 mol/L) for a period of 24 hours. After 24 hours of incubation, RNA was extracted using the PureLink RNA Mini Kit (Thermo Fisher) and quantified using the NanoDrop Lite spectrophotometer (Thermo Scientific). Tests were performed on a StepOnePlus device (Applied Byosystems). To perform real-time PCR, a commercially available analysis system was used (TaqMan® Gene Expression Assays; SRD5A1: (HS00971643_G1, 5-alpha reductase type 1); B2M: Hs00984230_m1; Applied Biosystems), with primers and probes based on sequence consensus using the TaqMan® RNA-to-CT™ 1-step kit (Applied Byosystems). […] Gene expression of 5-alpha reductase was calculated according to Pfaffl (2001).

SMILES | inhibitory effect on the growth of C. acnes [1] | increase of relative expression of type 1 5-alpha-reductase [2]
CCCCCCCC(=O)O [caprylic acid] | no apparent inhibitory effect | –
C[C@]12CC[C@H]3[C@@H](CCC4=CC(=O)CC[C@@]43C)[C@@H]1CC[C@@H]2O [testosterone, Testosterone] | – | 13%
